The record followed here is PubChem BioAssay AID2127 (Sanford-Burnham Center for Chemical Genomics, 2009).

Each structure is given as a SMILES string. Active and inactive are the calls of the source.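 The calls were made as follows: active = half-maximal inhibitory concentration below a set limit; inactive = the rest.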 A value given as a limit tells only on which side of the number the result lay.

The target in this assay is E3 ubiquitin-protein ligase SIAH1 (Homo sapiens) (UniProt Q8IUQ4). Description: displacement of labeled plectin from Siah-1 – biochemical, fluorescence polarization, fluorescein-plectin, artefact control for Siah-1 antagonist project, dose response (AID 2127). Particulars: Siah-1/fluorescein-plectin binding. For orientation: In fluorescence polarisation assays a small probe gives low polarisation when free and higher when bound to something large.
Regarding `O=C(CCn1ccc2ccccc21)NC1CCCc2ccccc21` (centres undefined), the IC50 (in general, the concentration that inhibits the measured activity by half) is > 200 µM (inactive).

Take `CCCCn1c(NC(=O)c2ccc(Br)o2)c(C(=O)OCC)c2nc3ccccc3nc21`: the IC50 is > 200 µM (inactive).

For `C=C(C)Cn1c(N2CCN(CC)CC2)nc2c1c(=O)[nH]c(=O)n2C`, the IC50 is > 200 µM (inactive).

As for `COc1ccc(CCNC(=O)c2ccc(S(=O)(=O)N(C)c3ccccc3)cc2)cc1OC`, the IC50 is > 200 µM (inactive).

Take `CCOC(=O)C1(C)C=C(Nc2ccc(O)cc2)C(=O)N1c1ccc(O)cc1` (centres undefined): the IC50 is > 200 µM (inactive).

Take `Cc1cc(C)c(C#N)c(Nc2ccccc2C)n1`: the IC50 is > 200 µM (inactive).

Turning to `COC(=O)c1ccc2c(c1)C(C)(C)C(/C=C/c1ccccc1O)=[N+]2C`, the IC50 is > 200 µM (inactive).

On to `O=C(CSc1ccc(Br)c2cccc(Cl)c12)Nc1ccc(S(=O)(=O)Nc2nccs2)cc1`, for which the IC50 is > 200 µM (inactive).

In the case of `COc1cc(/C=C2/SC(=S)N(Cc3ccccc3)C2=O)cc(Cl)c1O`, the IC50 was > 200 µM (inactive).

In the case of `COc1cc(NS(=O)(=O)c2ccc(NC(=S)NC(=O)/C=C/c3ccc(F)cc3)cc2)ncn1`, the IC50 was > 200 µM (inactive).

For the molecule `COCCn1nnnc1C(c1cc2ccc(OC)cc2[nH]c1=O)N1CCc2ccccc2C1` (centres undefined), the IC50 was > 200 µM (inactive).

As for `COc1ccc(CNC(=S)Nc2cc(OC)ccc2OC)cc1`, the IC50 was > 200 µM (inactive).

Regarding `COc1ccc(-c2cnnn2-c2ccc(N)cc2)cc1OC`, the IC50 is > 200 µM (inactive).

Turning to `S=c1[nH]nc(Cc2cccc3ccccc23)n1-c1ccccc1`, the IC50 is > 200 µM (inactive).

As for `O=C(Nc1ccccc1N1CCCCC1)c1ccc(-c2cccc(Cl)c2)o1`, the IC50 is > 200 µM (inactive).

Consider `O=c1[nH]n(-c2ccc([N+](=O)[O-])cc2)c(=O)c2ccccc12`, for which the IC50 was > 200 µM (inactive).

In the case of `Cc1cc(C)nc(N=Nc2c(O)n(Cc3ccc(Cl)cc3)c3ccccc23)n1`, the IC50 was > 200 µM (inactive).

`Cc1coc2c(C)c3oc(=O)c(CCC(=O)N[C@@H](C)C(=O)N[C@@H](Cc4ccccc4)C(=O)O)c(C)c3cc12`: the IC50 was > 200 µM (inactive).

`COc1cc(CC(=O)NCc2ccc3c(c2)OCO3)cc(OC)c1OC`: the IC50 was > 200 µM (inactive).

With `CC(NC(=O)Nc1ccc(O)cc1)(C(F)(F)F)C(F)(F)F`, the IC50 was > 200 µM (inactive).

Turning to `O=c1ccc2c(-c3ccccc3)c3ccc(O)cc3oc-2c1`, the IC50 was > 200 µM (inactive).

With `Oc1c(Br)cc(Br)cc1CNc1ccc(F)cc1`, the IC50 was > 200 µM (inactive).

For the molecule `CC1CCN(C(=O)C2CCC(C)(C(=O)O)C2(C)C)CC1` (centres undefined), the IC50 was > 200 µM (inactive).

For `CCc1nnc(NS(=O)(=O)c2ccc(NC(=S)NC(=O)/C=C/c3ccc(C(C)C)cc3)cc2)s1`, the IC50 was > 200 µM (inactive).

Turning to `Nc1c(C(=O)NCc2ccco2)c2nc3ccccc3nc2n1Cc1ccccc1`, the IC50 was > 200 µM (inactive).

Consider `Cc1cc(Cl)ccc1NC(=O)CN1CCC(C(O)(c2ccccc2)c2ccccc2)CC1`, for which the IC50 is > 200 µM (inactive).

Turning to `Cc1ccccc1-c1nc2c3ccccc3nc(=S)n2[nH]1`, the IC50 was > 200 µM (inactive).

For the molecule `CCCCn1c(NS(=O)(=O)c2ccc(C)cc2)c(S(=O)(=O)c2ccccc2)c2nc3ccccc3nc21`, the IC50 was > 200 µM (inactive).

Consider `O=C(NCc1ccc(Cl)cc1)c1cc(-c2cccs2)on1`, for which the IC50 is > 200 µM (inactive).
